In US9814663B2, “Peptide, method and composition for inhibiting melanogenesis” (RENORIGIN INNOVATION INSTITUTE CO., LTD., priority 2016, dated 2017):

What was measured:
Format in all cases: cell-based, murine
[1] = system: B16F10 melanoma cells; experiment: Cell pigmentation of treated B16F10 cultures (FIG. 1); conditions: 50 μg/ml peptide, 5 days
Protocol: B16F10 melanoma cells were treated with 10-50 μg/ml peptide of SEQ ID NO: 1 (“Lf H-392-399”) for 5 days with a medium change at day 3. The cells and medium were recovered in test tubes. Kojic acid is used as […] in the cellular study due to known inhibitory effects on tyrosinase activity. IBMX is used as positive control in the cellular study due to known elevator of cellular cAMP level, […].
(§1) B16F10 murine melanoma cells were cultured in phenol red-free DMEM with 10% fetal bovine serum and penicillin/streptomycin (100 IU/50 […]) in a humidified atmosphere containing 5% CO2 in air at 37° C.

[2] = system: B16F10 cells; experiment: Melanin content assay; conditions: 10 and 50 μg/ml peptide, 5 days, p<0.05 compared to control
Protocol: as §1
Melanin contents of cultured B16F10 cells were measured according to the method (Lee et al., J Invest Dermatol 124, 405-411, 2005) with a slight modification. Briefly, B16F10 cells were seeded in 6-well plate (2×10^4 cells/well) and incubated overnight to allow cells to adhere. After treating with various test samples in an incubator for 5 days, washed, trypsinized and counted before pelleting. Melanin per cell was quantified after boiling in 1 M NaOH for 1 hour and melanin content in each sample was read from a calibration curve against synthetic eumelanin at 400 nm and converted to means±SE melanin pg/cell from 3 independent experiments.

[3] = system: Tyrosinase; experiment: Tyrosinase assay (cell lysate, L-DOPA); conditions: B16F10 cells, 10 and 50 μg/ml peptide, 5 days; p<0.05 compared to control
Protocol: as §1
Tyrosinase is the rate limiting enzyme in the melanogenic pathway. Its measurement provides a highly specific and sensitive indication of degree of induction of melanogenesis. Tyrosinase enzyme activity of cultured B16F10 cells were measured according to the method of (Bellei et al., J Biol Chem 285, 7288-7299, 2010) with a slight modification. Briefly, B16F10 cells were seeded in 6-well plate (2×10^4 cells/well) and incubated overnight to allow cells to adhere. After treating with various test samples in an incubator for 5 days, cells were washed with PBS and then harvested using trypsin. At the end point, the cells were solubilized with phosphate buffer (pH 6.8) containing 1% Triton X-100. The cells were then disrupted by freezing and thawing, and the lysates were clarified by centrifugation at 10,000×g for 10 min. After protein quantification and adjustment of protein concentrations with lysis buffer, 100 μl of each lysate (each containing the same amount of protein) were aliquoted into the wells of a 96-well plate, and 100 μl of 5 mM L-DOPA were then added to each well. The absorbance was measured spectrophotometrically at 475 nm following a 30-min incubation period at 37° C. […]

[4] = system: Tyrosinase; experiment: DOPA staining; conditions: B16F10 cells, 10 and 50 μg/ml peptide, 4 days
Protocol: as §1
DOPA staining was also performed to measure tyrosinase enzyme activity. B16F10 cells were seeded in 6-well plate (2×10^4 cells/well) and incubated overnight to allow cells to adhere. After treating with various test samples in an incubator for 4 days, cells were washed with PBS, fixation with 2% paraformaldehyde and washing with PBS a further three times, the cells were incubated with 0.1% DOPA (dissolved in 0.1 M PBS) at 37° C. for 5 hour, and observed using light microscopy (Wang et al., Exp Ther Med 6, 967-972, 2013).

DOPA staining [4]: weaker DOPA staining
Sequence: SSASTTED (listed as Homo sapiens) [Lf H-392-399]
cell pigmentation [1]: reduced cell pigmentation
melanin synthesis (melanin content in cells and melanin secretion in culture medium) [2]: significantly decreased melanin synthesis
tyrosinase activity [3]: significantly decreased tyrosinase activity
